Measured values from US20250108038A1 (priority 2023, published 2025).
Values joined by “and” are separate entries in the source; they are usually repeats but may differ in a detail not shown here. Identical values can stand only once. Like-named read-outs stand apart in the source and are kept apart here.

How the values were obtained:
[1] = target: CYP2D6 (Homo sapiens, UniProt P10635); assay: in vitro; settings: both, pH 7.4
[2] = target: T1, CYP2C19 (Homo sapiens, UniProt P33261); assay: in vitro; settings: both, pH 7.4
[3] = target: T1, CYP2C19; assay: biochemical
[4] = in vitro; settings: beagle, dog, plasma
Protocol: (§1) Pooled (N≥3) male SD rat, beagle dog and mixed gender human plasma with EDTA-K2 as anticoagulant were purchased from BioIVT (NY, USA) and stored in a −70° C. freezer before use.
(§2) Incubations were conducted in 96-well plate format. The time points defined for this study are 0, 5, 15, 30 and 60 minutes.
(§3) For positive controls, the rat plasma was spiked with enalapril, the dog plasma spiked with bisacodyl and the human plasma was spiked with propantheline. All spiked plasma sample plates were incubated in a water bath at 37° C. with shaking.
(§4) At end of each time point, samples were immediately quenched with three volume of cold quenching solution. All sample plates were mixed thoroughly by shaking for approximately 10 minutes and centrifuged at 3220×g for 15 minutes. Subsequently, 100 μL of supernatant was removed from each well, mixed with 100 μL water in a new 96-well plate and subjected to LC-MS/MS analysis.
(§5) Concentrations of test article, metabolite, and control compounds in the samples were analyzed by LC-MS/MS semi-quantitatively. […] The peak area ratios of analyte/internal standard were used to semi-quantitatively determine the concentrations.
(§6) The peak area ratios (PAR) of analyte/internal standard were used to semi-quantitatively determine the concentration of test article and control compounds, and calculate the percent remaining with the following equation:
(§7) The elimination rate (ke) was calculated from a log linear plot of % remaining versus time. The half-life was calculated using the following equation:

[5] = Stability in beagle dog plasma; settings: 2.0 μM
Protocol: as §1, §2, §3, §4, §5, §6, §7

[6] = target: T2, CYP2C8 (Homo sapiens, UniProt P10632); assay: in vitro; settings: both, pH 7.4
T2 sequence (P10632 1-490): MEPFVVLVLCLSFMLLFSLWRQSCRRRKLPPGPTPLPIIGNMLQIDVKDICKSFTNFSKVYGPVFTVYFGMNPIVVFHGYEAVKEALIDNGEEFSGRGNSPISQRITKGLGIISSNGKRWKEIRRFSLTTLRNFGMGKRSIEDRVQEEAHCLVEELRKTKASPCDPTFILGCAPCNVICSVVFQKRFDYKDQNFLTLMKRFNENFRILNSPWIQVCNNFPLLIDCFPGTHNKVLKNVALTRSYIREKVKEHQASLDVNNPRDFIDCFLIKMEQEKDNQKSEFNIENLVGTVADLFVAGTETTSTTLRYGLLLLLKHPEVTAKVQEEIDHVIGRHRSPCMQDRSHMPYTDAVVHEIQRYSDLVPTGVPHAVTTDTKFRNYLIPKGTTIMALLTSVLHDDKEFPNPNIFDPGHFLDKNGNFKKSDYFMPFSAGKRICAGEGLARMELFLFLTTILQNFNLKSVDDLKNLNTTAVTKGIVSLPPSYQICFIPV

[7] = target: T3, CYP1A2 (Homo sapiens, UniProt P05177); assay: in vitro; settings: both, microsomes, pH 7.4
T3 sequence (P05177 1-516): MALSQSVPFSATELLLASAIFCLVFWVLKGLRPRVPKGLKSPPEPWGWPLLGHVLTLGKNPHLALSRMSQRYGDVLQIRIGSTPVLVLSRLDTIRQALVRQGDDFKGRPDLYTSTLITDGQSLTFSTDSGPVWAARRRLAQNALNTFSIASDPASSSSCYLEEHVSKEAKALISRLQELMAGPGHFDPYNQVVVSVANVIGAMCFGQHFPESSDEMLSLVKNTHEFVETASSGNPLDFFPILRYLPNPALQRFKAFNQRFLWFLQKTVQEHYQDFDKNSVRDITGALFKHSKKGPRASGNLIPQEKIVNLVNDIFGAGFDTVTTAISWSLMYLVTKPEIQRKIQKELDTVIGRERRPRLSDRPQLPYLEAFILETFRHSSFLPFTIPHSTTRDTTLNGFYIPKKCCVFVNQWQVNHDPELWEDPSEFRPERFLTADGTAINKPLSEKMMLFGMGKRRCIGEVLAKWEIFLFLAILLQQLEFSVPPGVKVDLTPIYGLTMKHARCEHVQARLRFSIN

[8] = target: CYP2C9 (Homo sapiens, UniProt P11712); assay: in vitro; settings: both, pH 7.4
[9] = target: T4, MATE1 (Homo sapiens, UniProt Q96FL8)
T4 sequence (Q96FL8 1-570): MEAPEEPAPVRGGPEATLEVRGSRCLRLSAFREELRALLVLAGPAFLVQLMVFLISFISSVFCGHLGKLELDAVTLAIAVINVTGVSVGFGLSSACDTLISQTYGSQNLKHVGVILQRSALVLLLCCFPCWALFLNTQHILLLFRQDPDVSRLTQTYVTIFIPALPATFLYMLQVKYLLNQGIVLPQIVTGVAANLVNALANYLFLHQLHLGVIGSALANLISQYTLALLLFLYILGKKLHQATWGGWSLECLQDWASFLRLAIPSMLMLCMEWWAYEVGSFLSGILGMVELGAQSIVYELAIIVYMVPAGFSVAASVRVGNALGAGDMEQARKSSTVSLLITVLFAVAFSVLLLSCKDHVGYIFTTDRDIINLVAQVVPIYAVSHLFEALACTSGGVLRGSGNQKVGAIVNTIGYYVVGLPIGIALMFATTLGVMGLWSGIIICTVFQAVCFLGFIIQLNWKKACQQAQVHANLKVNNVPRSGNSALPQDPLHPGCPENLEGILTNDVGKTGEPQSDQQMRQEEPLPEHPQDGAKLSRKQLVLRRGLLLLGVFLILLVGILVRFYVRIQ
Protocol: (§8) Uptake experiments were performed using HEK293 cells stably expressing the respective uptake transporters.
(§9) Cells were cultured at 37° C. in a humidified atmosphere containing 5% CO2 and were plated onto standard 96-well tissue culture plates.
(§10) Before the experiment, the medium was removed, and the cells were washed twice with 100 μL of pre-warmed (37° C.) assay buffer listed in Table 15. The cells were pre-incubated at 37° C. for 30 minutes in assay buffer containing the test article at appropriate concentrations (Table 16), appropriate solvents for solvent controls and the reference inhibitor for reference inhibitor wells. After the pre-incubation step solutions were removed. Uptake experiments were performed at 37° C. in 50 μL of assay buffer containing the probe substrate and the test article or solvent and controls.
(§11) After the experiment, cells were washed twice with 100 μL of appropriate cold buffer and lysed with 150 μL scintillation cocktail. Radiolabeled probe substrate transport was determined by liquid scintillation counting.
(§12) Uptake of the probe substrate in control cells provided background activity values for all data points.

[10] = target: T5, MATE2-K (Homo sapiens, UniProt Q86VL8)
Protocol: as §8, §9, §10, §11, §12

[11] = target: T4, MATE1; assay: in vitro
Protocol: as §8, §9, §10, §11, §12

[12] = target: T5, MATE2-K; assay: in vitro
Protocol: as §8, §9, §10, §11, §12

T5 sequence (Q86VL8 1-566 isoform Q86VL8-3): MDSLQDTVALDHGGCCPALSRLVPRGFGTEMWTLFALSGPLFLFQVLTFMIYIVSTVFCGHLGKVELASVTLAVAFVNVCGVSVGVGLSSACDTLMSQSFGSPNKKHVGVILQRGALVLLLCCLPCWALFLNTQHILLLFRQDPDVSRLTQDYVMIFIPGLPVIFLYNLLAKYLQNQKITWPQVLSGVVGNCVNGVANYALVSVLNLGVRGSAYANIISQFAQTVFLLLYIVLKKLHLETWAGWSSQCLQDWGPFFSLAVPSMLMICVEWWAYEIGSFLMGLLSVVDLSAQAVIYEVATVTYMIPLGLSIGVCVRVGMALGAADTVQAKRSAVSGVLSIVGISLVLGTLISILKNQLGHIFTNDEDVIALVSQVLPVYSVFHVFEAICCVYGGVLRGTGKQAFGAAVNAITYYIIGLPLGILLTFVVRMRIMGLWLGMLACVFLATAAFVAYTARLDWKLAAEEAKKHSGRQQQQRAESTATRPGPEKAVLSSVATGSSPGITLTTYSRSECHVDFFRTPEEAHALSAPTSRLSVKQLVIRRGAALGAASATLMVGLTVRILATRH
T1 sequence (P33261 whole entry): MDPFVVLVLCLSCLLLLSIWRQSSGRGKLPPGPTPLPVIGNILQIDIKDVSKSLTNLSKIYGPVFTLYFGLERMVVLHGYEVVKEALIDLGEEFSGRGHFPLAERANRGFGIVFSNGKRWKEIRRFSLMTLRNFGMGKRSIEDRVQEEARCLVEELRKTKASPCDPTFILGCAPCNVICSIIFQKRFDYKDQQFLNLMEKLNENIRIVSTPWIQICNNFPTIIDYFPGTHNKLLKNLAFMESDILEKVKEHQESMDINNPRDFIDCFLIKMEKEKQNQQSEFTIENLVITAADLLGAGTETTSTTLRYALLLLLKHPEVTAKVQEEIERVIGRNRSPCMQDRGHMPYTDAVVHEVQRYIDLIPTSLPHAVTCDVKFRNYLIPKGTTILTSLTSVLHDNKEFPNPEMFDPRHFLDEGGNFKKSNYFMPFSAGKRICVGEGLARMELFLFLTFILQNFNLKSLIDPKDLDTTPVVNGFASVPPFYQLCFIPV
Chain of CYP2C9 (P11712 whole entry): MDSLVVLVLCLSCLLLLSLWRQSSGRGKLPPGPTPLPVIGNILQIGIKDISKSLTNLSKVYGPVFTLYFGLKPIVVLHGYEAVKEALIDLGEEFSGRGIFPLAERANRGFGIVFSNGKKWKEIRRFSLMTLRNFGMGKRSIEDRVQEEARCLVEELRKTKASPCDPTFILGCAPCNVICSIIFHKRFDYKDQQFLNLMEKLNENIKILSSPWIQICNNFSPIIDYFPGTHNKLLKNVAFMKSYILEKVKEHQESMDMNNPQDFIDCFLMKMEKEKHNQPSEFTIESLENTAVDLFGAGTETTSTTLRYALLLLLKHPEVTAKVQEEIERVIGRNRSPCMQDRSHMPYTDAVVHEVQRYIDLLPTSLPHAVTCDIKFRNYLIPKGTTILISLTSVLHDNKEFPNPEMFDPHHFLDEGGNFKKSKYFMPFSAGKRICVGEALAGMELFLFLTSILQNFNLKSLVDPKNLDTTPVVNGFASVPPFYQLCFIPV
Chain of CYP2D6 (P10635 whole entry): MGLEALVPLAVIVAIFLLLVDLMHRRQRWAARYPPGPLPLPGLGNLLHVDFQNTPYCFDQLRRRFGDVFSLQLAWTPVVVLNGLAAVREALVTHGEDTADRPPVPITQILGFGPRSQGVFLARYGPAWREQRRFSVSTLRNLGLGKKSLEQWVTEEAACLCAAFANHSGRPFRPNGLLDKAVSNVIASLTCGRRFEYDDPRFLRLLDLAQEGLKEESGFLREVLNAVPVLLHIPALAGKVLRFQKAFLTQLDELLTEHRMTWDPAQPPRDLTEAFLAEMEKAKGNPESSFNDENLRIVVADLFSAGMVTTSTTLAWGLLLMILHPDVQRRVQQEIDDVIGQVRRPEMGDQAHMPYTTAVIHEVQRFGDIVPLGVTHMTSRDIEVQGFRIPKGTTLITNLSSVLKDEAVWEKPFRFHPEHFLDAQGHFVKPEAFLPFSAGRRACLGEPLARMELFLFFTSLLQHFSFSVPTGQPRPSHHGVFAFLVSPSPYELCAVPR

SMILES: C=C[C@H]1C[N@@]2CC[C@H]1C[C@@H]2[C@@H](O)c1ccnc2ccc(OC)cc12 [Quinidine]
- inhibition at 5 µM [1]: 96.2%

SMILES: COc1ccc2[nH]c([S+]([O-])Cc3ncc(C)c(OC)c3C)nc2c1 (stereo not shown) [Omeprazole]
- inhibition at 50 µM [2]: 89.9%
- IC50 [3]: 7.36 µM

SMILES: CC(=O)Oc1ccc(C(c2ccc(OC(C)=O)cc2)c2ccccn2)cc1 [Bisacodyl, reference compound]
- half-life at 2 μM [4]: 3.6 min
- % Remaining ([5]; 0 min): 100%
- Aa/Ai Mean (N = 2) ([5]; 0 min): 1.49
- % Remaining ([5]; 5 min): 45.9%
- Aa/Ai Mean (N = 2) ([5]; 5 min): 0.68
- % Remaining ([5]; 15 min): 8.79%
- Aa/Ai Mean (N = 2) ([5]; 15 min): 0.13
- % Remaining ([5]; 30 min): 0.34%
- Aa/Ai Mean (N = 2) ([5]; 30 min): 0.01
- % Remaining ([5]; 60 min): 0.00%
- Aa/Ai Mean (N = 2) ([5]; 60 min): 0.00

SMILES: O=c1c(O)c(-c2ccc(O)c(O)c2)oc2cc(O)cc(O)c12 [Quercetin]
- inhibition at 50 µM [6]: 102%

SMILES: COCCCC/C(=N\OCCN)c1ccc(C(F)(F)F)cc1 [Fluvoxamine]
- inhibition at 50 µM [7]: 101%

SMILES: Nc1ccc(S(=O)(=O)Nc2ccnn2-c2ccccc2)cc1 [Sulfaphenazole]
- inhibition at 50 µM [8]: 98.7%

SMILES: CCc1nc(N)nc(N)c1-c1ccc(Cl)cc1 [Pyrimethamine]
- inhibition [9]: 100%
- inhibition ([9]; 5 µM): 100%
- inhibition [10]: 101%
- inhibition ([10]; 5 µM): 101% and 102% and 100%
- inhibition at 5 µM [11]: 102%
- inhibition at 5 μM [11]: 101%
- inhibition at 5 µM [12]: 95%
- inhibition at 5 μM [12]: 98%
